“And” between values parts separate entries of the source, which are not always exact repeats. Equal entries are not always repeated.
Experiments:
Rattus norvegicus [1] = conditions: for LD50 / LC50: acute
Rattus norvegicus [2] = tested on: Rattus norvegicus
Rattus norvegicus [3] = conditions: for LOEL / NOEL: Hershberger, gavage; for LEL: uterotrophic, duration: 3 days, Active
Rattus norvegicus [4] = conditions: oral, gavage, Sprague-Dawley
[5] = repeat dose other, inhalation, B6C3F1
[6] = duration: 10 days, oral, Sprague-Dawley, active + Antiandrogenic + anti-androgenic
[7] = duration: 10 days, oral, Wistar, active + Negative + Antiandrogenic + anti-androgenic
[8] = duration: 7 days, oral, Sprague-Dawley, active + Antiandrogenic + anti-androgenic
[9] = reproduction developmental, duration: 7 days, F, generation: P0, P0: Developmental: Whole Body: Litter Size + P0: Developmental: Whole Body: Male Pups per Pups Sexed
[10] = short-term, duration: 21 days, M, Endocrine: Multi-Organ: Estradiol, Serum + Endocrine: Multi-Organ: Follicular Stimulating Hormone (FSH), Serum + Endocrine: Multi-Organ: …
[11] = short-term, duration: 21 days, M, Endocrine: Multi-Organ: Estradiol, Serum + Endocrine: Multi-Organ: Follicular Stimulating Hormone (FSH), Serum + Metabolic: Multi-Organ: …
[12] = short-term, duration: 21 days, M, Endocrine: Multi-Organ: Testosterone (T), Serum + Reproductive: Epididymis: Epididymis Weight, Absolute + Reproductive: Testis: Testis …

CCCCCCCCCCCCCCCCCCOC(=O)CCSCCC(=O)OCCCCCCCCCCCCCCCCCC [Distearyl thiodipropionate] was tested, and the LD50 (Mus musculus; acute, injection, Intraperitoneal) was > 2000 mg/kg, the LD50 (Mus musculus; acute, oral) was > 2000 mg/kg and the LD50 (Rattus norvegicus [1]; dermal) was > 2000 mg/kg. The LD50 (Rattus norvegicus [1]; oral) was > 5000 mg/kg.
Work on C1CO1 [Ethylene oxide] yielded an NOAEL (Rattus norvegicus [2]; developmental, duration: 364 days, inhalation, whole body, M/F, CD, developmental) of 18 mg/m3.
For CC(C)COC(=O)C(C)C [Isobutyl isobutyrate], the LD50 (Mus musculus; acute, oral) was > 6400 mg/kg and the LD50 (Rattus norvegicus [1]; oral) was > 6400 mg/kg.
For C=CC(=C)C [Isoprene], the LC50 (Mus musculus; acute, inhalation) was 180000 mg/m3 and 157000 mg/m3, the NOAEL (Mus musculus; developmental, duration: 6 days, inhalation, CD-1/Swiss, generation: F1) was 19500 mg/m3 and the LOAEL (Mus musculus; [5]) was 195 mg/m3. For the same compound, the NOAEL (Mus musculus; [5]) was 27.9 mg/m3, the NOAEL (Mus musculus; reproduction developmental, inhalation, B6C3F1) was 195 mg/m3 and the LC50 (Rattus norvegicus [1]; inhalation) was 180000 mg/m3 and 157000 mg/m3. It also gave an NOAEL (Rattus norvegicus [1]; developmental, duration: 6 days, inhalation, Sprague-Dawley, generation: F1) of 19500 mg/m3 and an NOAEL (Rattus norvegicus [1]; reproduction developmental, inhalation, Fischer 344) of 195 mg/m3.
For CCCCC(CC)COC(=O)c1ccccc1C(=O)O (stereo unspecified) [MEHP], the LOEL (Rattus norvegicus [3]; [6]) was 50 mg/kg-day and the NOEL (Rattus norvegicus [3]; [6]) was 10 mg/kg-day.
In the case of CC(=O)[C@@]1(O)CC[C@H]2[C@@H]3C[C@H](C)C4=CC(=O)CC[C@]4(C)[C@H]3CC[C@@]21C [Medroxyprogesterone], the LOEL (Rattus norvegicus [3]; [7]) is reported as 100 mg/kg-day and the NOEL (Rattus norvegicus [3]; [7]) is reported as 20 mg/kg-day.
CCN(O)CC [N,N-Diethylhydroxylamine] was tested, and the LD50 (Mus musculus; acute, oral) was 2150 mg/kg, the LC50 (Rattus norvegicus [1]; inhalation, Sprague-Dawley) was 11400 mg/m3 and the LD50 (Rattus norvegicus [1]; oral, gavage, WBS/W) was 2190 mg/kg. The NOAEL (Rattus norvegicus [1]; reproduction developmental, oral, gavage, F, Sprague-Dawley) was 250 mg/kg-day, the NOAEL (Rattus norvegicus [1]; short-term, duration: 5 days, inhalation, Sprague-Dawley) was 547 mg/m3 and the NOAEL (Rattus norvegicus [1]; short-term, duration: 28 days, inhalation, Sprague-Dawley) was 547 mg/m3.
Compound O=C1CCC(=O)N1c1cc(Cl)cc(Cl)c1 [N-(3,5-Dichlorophenyl)succinimide] has an LOEL (Rattus norvegicus [3]; [8]) of 100 mg/kg-day and an NOEL (Rattus norvegicus [3]; [8]) of 50 mg/kg-day.
With NS(=O)(=O)C(F)(F)C(F)(F)C(F)(F)C(F)(F)C(F)(F)C(F)(F)C(F)(F)C(F)(F)F [Perfluorooctanesulfonamide] the NOAEL (Rattus norvegicus [2]; acute, duration: 1 days, oral, gavage, M, Sprague-Dawley, Hepatic: No alterations in liver weight) was 5 mg/kg-day.
O=C(O)C(F)(F)C(F)(F)C(F)(F)C(F)(F)C(F)(F)C(F)(F)C(F)(F)C(F)(F)C(F)(F)C(F)(F)C(F)(F)C(F)(F)F [Perfluorotridecanoic acid] gave an NOAEL (Rattus norvegicus [4]; developmental, duration: 7 days, M, generation: F1, F1: Developmental: Testis: Fetal Leydig cell number + F1: Developmental: Trunk: Anogenital Distance + F1: Developmental: Whole Body: Pup …) of 5 mg/kg-day, an LOAEL (Rattus norvegicus [4]; [9]) of 10 mg/kg-day and an NOAEL (Rattus norvegicus [4]; [9]) of 5 mg/kg-day. For the same compound, the LOAEL (Rattus norvegicus [4]; reproduction developmental, duration: 7 days, F, generation: P0, P0: Developmental: Whole Body: Litter Size + P0: Developmental: Whole Body: Male Pups per Pups Sexed + P0: Reproductive: Whole Body: Birth …) was 1 mg/kg-day, the LOAEL (Rattus norvegicus [4]; reproduction developmental, duration: 7 days, F, generation: P0, P0: Reproductive: Whole Body: Birth rate) was 1 mg/kg-day and the NOAEL (Rattus norvegicus [4]; reproduction developmental, duration: 7 days, F, generation: P0, P0: Whole Body: Whole Body: Clinical Observations, Unspecified + P0: Whole Body: Whole Body: Maternal Body Weight) was 10 mg/kg-day. It also gave an LOAEL (Rattus norvegicus [4]; reproduction developmental, duration: 7 days, M, generation: F1, F1: Endocrine: Multi-Organ: Testosterone (T), Serum) of 1 mg/kg-day, an LOAEL (Rattus norvegicus [4]; [10]) of 5 mg/kg-day and an NOAEL (Rattus norvegicus [4]; [10]) of 1 mg/kg-day. For the same compound, the LOAEL (Rattus norvegicus [4]; [11]) was 10 mg/kg-day, the NOAEL (Rattus norvegicus [4]; [11]) was 5 mg/kg-day and the LOAEL (Rattus norvegicus [4]; [12]) was 5 mg/kg-day. For the same compound, the NOAEL (Rattus norvegicus [4]; [12]) was 1 mg/kg-day and the NOAEL (Rattus norvegicus [4]; short-term, duration: 21 days, M, Whole Body: Whole Body: Body Weight Change + Whole Body: Whole Body: Body Weight, Absolute + Whole Body: Whole Body: Clinical Observation …) was 10 mg/kg-day.
CCCCOCCOCCOCc1cc2c(cc1CCC)OCO2 [Piperonyl butoxide] was tested, and the NOEL (Rattus norvegicus [3]; duration: 10 days, oral, Sprague-Dawley, inactive + Negative + Negative + anti-androgenic + see note) was 500 mg/kg-day.
For CCCCCCCCCCCCOC(=O)CCSCCC(=O)OCCCCCCCCCCCC [Propanoic acid, 3,3'-thiobis-, didodecyl ester], the LD50 (Mus musculus; acute, oral) was > 2000 mg/kg, the LD50 (Rattus norvegicus [1]; oral) was > 2500 mg/kg and the NOAEL (Rattus norvegicus [1]; reproduction developmental, duration: 13 weeks, oral, gavage, Sprague-Dawley) was 350 mg/kg-day. For the same compound, the NOAEL (Rattus norvegicus [1]; subchronic, duration: 13 weeks, oral, gavage, Sprague-Dawley) was 350 mg/kg-day.
CC(=O)S[C@@H]1CC2=CC(=O)CC[C@]2(C)[C@H]2CC[C@@]3(C)[C@@H](CC[C@@]34CCC(=O)O4)[C@H]12 [Spironolactone] gave an LOEL (Rattus norvegicus [3]; [7]) of 40 mg/kg-day and an NOEL (Rattus norvegicus [3]; [7]) of 8 mg/kg-day.
Work on [Sn] [Tin] yielded an NOAEL (Rattus norvegicus [2]; subchronic, duration: 13 weeks, oral, diet, M/F, Wistar, hematological) of 32 mg/kg-day.
Work on CC(C)OB(OC(C)C)OC(C)C [Triisopropyl orthoborate] yielded an LD50 (Mus musculus; acute, oral, Swiss) of 2500 mg/kg and an LD50 (Rattus norvegicus [1]; oral, gavage) of 8130 mg/kg.
C[C@H]1CCCC(=O)CCCCCc2cc(O)cc(O)c2C(=O)O1 [Zearalanone] showed an LEL (Rattus norvegicus [3]; oral) of 0.18 mg/day.
C[C@H]1CCC[C@H](O)CCC/C=C/c2cc(O)cc(O)c2C(=O)O1 [alpha-Zearalenol] gave an LEL (Rattus norvegicus [3]; oral) of 0.01 mg/day.
CCCCCCCCCc1ccccc1O [n-Nonylphenol] was tested, and the LOEL (Rattus norvegicus [3]; duration: 10 days, oral, Sprague-Dawley, active + Negative + Antiandrogenic + anti-androgenic + slight delay in timing of PPS, but only 33% of rats had complete separation by end of…) was 100 mg/kg-day and 160 mg/kg-day and the LEL (Rattus norvegicus [3]; injection, subcutaneous) was 100 mg/kg-day.

Reference: EPA's ToxValDB 9.5
